{"source": "patent US20150246136A1", "about": "“NOVEL BINDER-DRUG CONJUGATES (ADCs) AND USE OF SAME” (priority 2011, published 2015)", "test": "Pharmacokinetics in the HT29 tumor model, non-transfected tumors", "format": "in vivo", "details": "after i.v. 16 mg/kg Example 60", "description": "C-2.3 Pharmacokinetics in the HT29 Tumor Model with Mesothelin-Transfected HT29 Cells and Non-Transfected Cells\nAfter i.v. administration of 16 mg/kg from Example 60, the plasma and tumor concentrations of Example 60 were measured along with potentially occurring metabolites such as those of Example 119, for example. […] In the animals with non-transfected tumors, the exposure in the plasma in Example 119 was identical to the exposure in the plasma of animals with transfected tumors. […] This is indicative of a definite targeting effect in the tumor in the presence of the antigen.\nAnalysis for Quantitation of the Compound from Example 119 […]\nIn workup of a tumor, it was mixed with a four-fold amount of methanol. […] After agitating again, the tumor sample was ready for measurement.\nFinally, the measurement of both matrix samples was performed on the HPLC coupled atmospheric pressure ionization/tandem mass spectrometer by means of turbo ion spray interface (TISP) on an API4000 instrument from the company SCIEX. The following m/z transitions were measured: […]\nFor the calibration, plasma samples with concentrations of 0.5-2000 μg/L were mixed. The limit of quantitation (LOQ) was 2 μg/L. The linear range was from 2 to 1000 μg/L. […]", "data": [{"smiles": "CC[C@H](C)[C@@H]([C@@H](CC(=O)N1CCC[C@H]1[C@H](OC)[C@@H](C)C(=O)N[C@@]1(C(=O)N2CCCCO2)C[C@@H]1c1ccccc1)OC)N(C)C(=O)[C@@H](NC(=O)[C@H](C(C)C)N(C)CCCC(=O)NNC(=O)CCCCCN1C(=O)CC(SC[C@H](N)C(=O)O)C1=O)C(C)C", "note": "(stereo partly drawn) [Example 119, N-(4-{2-[6-(3-{[(2R)-2-amino-2-carboxyethyl]sulfanyl}-2,5-dioxopyrrolidin-1-yl)hexanoyl]hydrazino}-4-oxobutyl)-N-methyl-L-valyl-N-[(3R,4S,5S)-3-methoxy-1-{(2S)-2-[(1R,2R)-1-methoxy-2-methyl-3-{[(1S,2R)-1-(1,2-oxazinan-2-ylcarbonyl)-2-phenylcyclopropyl]amino}-3-oxopropyl]pyrrolidin-1-yl}-5-methyl-1-oxoheptan-4-yl]-N-methyl-L-valinamide]", "values": [{"measurement": "AUC in the tumor versus transfected animals", "result": "approx. eight times lower"}, {"measurement": "exposure in the plasma versus animals with transfected tumors", "result": "identical"}]}]}
